{
  "source": "patent US11173165B2",
  "about": "“Optimizing mifepristone levels for Cushing's patients” (Corcept Therapeutics, Inc., priority 2015, dated 2021)",
  "key": {"[1]": {"test_system": "patients with a diagnosis of Cushing's syndrome", "experiment": "Optimal response to mifepristone in Phase III open label study of Cushing's syndrome", "format": "in vivo, human", "settings": "responders who completed the study", "procedure": "This example provides an open label study of the safety and efficacy in the treatment of Cushing's syndrome. The study was a Phase III trial performed using several investigators at several different sites. […] The number of patients was 50. Patients eligible for randomization were male or nonpregnant female outpatients, and inpatients, if clinically required, with a diagnosis of Cushing's syndrome. Mifepristone was used as the test drug at 300 (1×300 mg tablet), 600 (2×300 mg tablet), 900 (3×300 mg tablet) and 1200 mg (4×300 mg tablet) once a day by mouth. Safety visits occurred at Days 21 and 35. If clinically necessary, a patient was treated as an inpatient. If early termination occurred prior to day 35, the patient returned for a safety follow up visit at day 35. The primary efficacy endpoint was the proportion of patients with at least a 25% reduction from baseline on a standard two hour oral glucose tolerance test or a […] in their diastolic blood pressure at study end (6 months). The secondary endpoints were: (1) the patient's global impression; and (2) reduction in previously used antihypertensive medication. The criteria for assessing study efficacy objective was the proportion of patients with at least a 25% reduction from baseline on a standard two hour oral glucose tolerance test or a […] in their diastolic blood pressure at study end (6 months)."}, "[2]": {"target": "glucocorticoid receptor (GR) (Homo sapiens, UniProt P04150)", "sequence (P04150 whole entry)": "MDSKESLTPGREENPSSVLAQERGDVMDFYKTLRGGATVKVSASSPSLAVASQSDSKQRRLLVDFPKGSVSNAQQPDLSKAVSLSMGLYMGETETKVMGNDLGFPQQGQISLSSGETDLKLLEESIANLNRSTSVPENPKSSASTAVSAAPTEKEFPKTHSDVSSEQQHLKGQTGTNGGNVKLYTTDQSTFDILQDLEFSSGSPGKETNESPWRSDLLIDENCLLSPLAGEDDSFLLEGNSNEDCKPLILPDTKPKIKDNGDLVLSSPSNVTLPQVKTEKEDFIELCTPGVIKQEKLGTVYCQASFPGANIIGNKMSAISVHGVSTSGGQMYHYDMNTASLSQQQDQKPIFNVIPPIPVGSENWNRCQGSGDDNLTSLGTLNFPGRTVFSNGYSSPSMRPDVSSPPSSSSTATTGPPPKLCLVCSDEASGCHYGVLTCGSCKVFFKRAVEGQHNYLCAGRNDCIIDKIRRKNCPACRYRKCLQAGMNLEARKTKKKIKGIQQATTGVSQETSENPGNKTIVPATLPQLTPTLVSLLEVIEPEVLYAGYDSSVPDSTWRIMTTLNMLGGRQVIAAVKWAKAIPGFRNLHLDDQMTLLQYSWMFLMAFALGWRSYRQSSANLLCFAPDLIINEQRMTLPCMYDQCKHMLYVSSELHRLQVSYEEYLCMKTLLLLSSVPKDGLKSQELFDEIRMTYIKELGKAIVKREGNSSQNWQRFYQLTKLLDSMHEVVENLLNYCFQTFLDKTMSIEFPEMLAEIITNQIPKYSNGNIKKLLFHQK", "settings": "cited from earlier work"}, "[3]": {"experiment": "Mifepristone trough plasma level (MIFE-Ctrough) in Phase III open label study of Cushing's syndrome", "format": "in vivo, human", "settings": "for MIFE-Ctrough, Mean / MIFE-Ctrough, Max / MIFE-Ctrough, Median / MIFE-Ctrough, Min: responders who completed the study", "procedure": "Three (3) mL of blood was collected from a patient in a vacutainer containing sodium heparin. The blood was centrifuged and the resulting plasma frozen at −70 to −80° C. until assay. For analysis, the plasma samples were warmed and prepared as follows: • 1. Using a pipette, 50.0 μL of the sample was aliquoted into a 16×100-mm glass test tube. When a partial volume aliquot was needed, the aliquot was added to the tube and diluted to full volume with blank human plasma. • 2. 20.0 μL of the internal standard, mifepristone-d4 (5.00 μg/mL in acetonitrile), was added to the tube, resulting in 2000.0 ng/mL mifepristone-d4 in plasma. • 3. The tube was vortexed for approximately 1 minute. • 4. 50.0 μL of 6% ammonium hydroxide was added to the tube. • 5. The tube was vortexed for approximately 1 minute. • 6. 2.00 mL of MTBE was added to the tube. • 7. 2.00 mL of hexane was added to the tube. • 8. The tube was vortexed for at least 15 minutes. • 9. The tube was centrifuged for at least 10 minutes at 2500 RPM (575×g). • 10. The aqueous layer was frozen in a freezer set to maintain −70° C. • 11. […] The tube was vortexed for approximately 1 minute. • 15. The tube was sonicated for approximately 1 minute. • 16. The tube was vortexed for approximately 1 minute. • 17. The sample was transferred to a labeled injection vial or well plate. • 18. The vial or plate was capped and checked for air bubbles. The sample was then analyzed by reverse-phase high pressure liquid chromatography using a water:acetonitrile:formic acid (60:40:0.1) mobile phase (isocratic) at a flow rate of 0.3 mL/min. The column was a phenyl column maintained at 50° C. Mifepristone elutes at 4.2 minutes. Following elution, the mobile phase was nebulized using heated nitrogen in a Z-spray source/interface and the ionized compounds detected using a tandem quadrupole mass spectrometer. Mifepristone (molecular weight of 430 g/mol) was detected at m/z 372.30. The internal standard mifepristone-d4 was detected at m/z 376.30. The ratio of the mifepristone peak height to the mifepristone-d4 peak height was calculated. The plasma concentration of mifepristone was then calculated by comparing the experimental ratio to a standard curve of mifepristone:mifepristone-d4 peak height ratio v. mifepristone concentration. The standard curve was generated by first measuring the mifepristone:mifepristone-d4 peak height ratios for mifepristone samples at 10, 20, 50, 100, 200, 500, 1000 and 2000 ng/mL where the mifepristone-d4 internal standard has a concentration of 2000 ng/mL. The mifepristone:mifepristone-d4 peak height ratios of these known solutions were then fit to a power equation (Mass Lynx by Micromass, Beverly, Mass.), and the sample with unknown concentrations of mifepristone was compared. […]"}, "[4]": {"settings": "in vivo; cited from earlier work"}, "[5]": {"settings": "cited from earlier work"}, "[6]": {"settings": "at first response, including early terminators"}},
  "data": [
    {"smiles": "CC#C[C@]1(O)CC[C@H]2[C@@H]3CCC4=CC(=O)CCC4=C3[C@@H](c3ccc(N(C)C)cc3)C[C@@]21C", "note": "[mifepristone, 17-beta-hydroxy-11-beta-(4-dimethyl-aminophenyl)-17-alpha-(1-propynyl)-estra-4,9-dien-3-one]", "values": [
      {"measurement": "Cumulative Optimal Response (%)", "setting": "[1]; dose 300", "result": 20, "unit": "%"},
      {"measurement": "Optimal Response (%)", "setting": "[1]; dose 300", "result": 20, "unit": "%"},
      {"measurement": "Cumulative Optimal Response (%)", "setting": "[1]; dose 600", "result": 40, "unit": "%"},
      {"measurement": "Optimal Response (%)", "setting": "[1]; dose 600", "result": 20, "unit": "%"},
      {"measurement": "Cumulative Optimal Response (%)", "setting": "[1]; dose 900", "result": 60, "unit": "%"},
      {"measurement": "Optimal Response (%)", "setting": "[1]; dose 900", "result": 20, "unit": "%"},
      {"measurement": "Cumulative Optimal Response (%)", "setting": "[1]; dose 1200", "result": 100, "unit": "%"},
      {"measurement": "Optimal Response (%)", "setting": "[1]; dose 1200", "result": 40, "unit": "%"},
      {"measurement": "binding to the glucocorticoid receptor (GR)", "setting": "[2]", "result": "high affinity"},
      {"measurement": "MIFE-Ctrough at Response, Max", "setting": "[3]; [6]", "result": 4210.00, "unit": "ng/mL"},
      {"measurement": "MIFE-Ctrough at Response, Mean", "setting": "[3]; [6]", "result": 1968.68, "unit": "ng/mL"},
      {"measurement": "MIFE-Ctrough at Response, Median", "setting": "[3]; [6]", "result": 1770.00, "unit": "ng/mL"},
      {"measurement": "MIFE-Ctrough at Response, Min", "setting": "[3]; [6]", "result": 448.00, "unit": "ng/mL"},
      {"measurement": "MIFE-ΔCtrough from Prior Dose, Max", "setting": "[3]; [6]", "result": 2017.00, "unit": "ng/mL"},
      {"measurement": "MIFE-ΔCtrough from Prior Dose, Mean", "setting": "[3]; [6]", "result": 221.50, "unit": "ng/mL"},
      {"measurement": "MIFE-ΔCtrough from Prior Dose, Median", "setting": "[3]; [6]", "result": 250.00, "unit": "ng/mL"},
      {"measurement": "MIFE-ΔCtrough from Prior Dose, Min", "setting": "[3]; [6]", "result": -860.00, "unit": "ng/mL"},
      {"measurement": "MIFE-Ctrough, Mean", "setting": "[3]; dose 300 (mg once a day by mouth)", "result": 1774.28, "unit": "ng/mL"},
      {"measurement": "MIFE-Ctrough, Max", "setting": "[3]; dose 300", "result": 4130.00, "unit": "ng/mL"},
      {"measurement": "MIFE-Ctrough, Median", "setting": "[3]; dose 300", "result": 1455.00, "unit": "ng/mL"},
      {"measurement": "MIFE-Ctrough, Min", "setting": "[3]; dose 300", "result": 820.00, "unit": "ng/mL"},
      {"measurement": "MIFE-Ctrough, Mean", "setting": "[3]; dose 600 (mg once a day by mouth)", "result": 1951.66, "unit": "ng/mL"},
      {"measurement": "MIFE-Ctrough, Max", "setting": "[3]; dose 600", "result": 3850.00, "unit": "ng/mL"},
      {"measurement": "MIFE-Ctrough, Median", "setting": "[3]; dose 600", "result": 1630.00, "unit": "ng/mL"},
      {"measurement": "MIFE-Ctrough, Min", "setting": "[3]; dose 600", "result": 890.00, "unit": "ng/mL"},
      {"measurement": "MIFE-Ctrough, Mean", "setting": "[3]; dose 900 (mg once a day by mouth)", "result": 2107.70, "unit": "ng/mL"},
      {"measurement": "MIFE-Ctrough, Max", "setting": "[3]; dose 900", "result": 4230.00, "unit": "ng/mL"},
      {"measurement": "MIFE-Ctrough, Median", "setting": "[3]; dose 900", "result": 1820.00, "unit": "ng/mL"},
      {"measurement": "MIFE-Ctrough, Min", "setting": "[3]; dose 900", "result": 992.00, "unit": "ng/mL"},
      {"measurement": "MIFE-Ctrough, Mean", "setting": "[3]; dose 1200 (mg once a day by mouth)", "result": 2292.86, "unit": "ng/mL"},
      {"measurement": "MIFE-Ctrough, Max", "setting": "[3]; dose 1200", "result": 5440.00, "unit": "ng/mL"},
      {"measurement": "MIFE-Ctrough, Median", "setting": "[3]; dose 1200", "result": 2022.50, "unit": "ng/mL"},
      {"measurement": "MIFE-Ctrough, Min", "setting": "[3]; dose 1200", "result": 1060.00, "unit": "ng/mL"},
      {"measurement": "blood serum level to be maintained for a therapeutic response", "setting": "[3]; patients suffering from Cushing's syndrome", "result": "at least 1631 ng/mL"},
      {"measurement": "LD50 dose", "setting": "[4]", "result": "about 1000 mg/kg"},
      {"measurement": "blood serum level to be maintained", "setting": "[5]; patients suffering from a mental disorder", "result": "about 1300 ng/mL"},
      {"measurement": "difference in blood serum levels from one patient to another", "setting": "[5]; same dose, different patients", "result": "≤ 800", "unit": "%"}
    ]}
  ]
}
